One data set relates to eKRas cells. Briefly: Proliferation assay (attached cell number). The data set is classed as cell-based, mouse. The following applies: critical micelle concentrations, 10 μM of each lipid. How it is done:
(§1) Proliferation Assays. To assay proliferation, 6E4 cells/well were plated in 6-well plates (ThermoFisher 140675) with complete medium to generate triplicate wells, per experimental condition, for Day 0 through Day 3/4. 6-8 h after seeding cells, wells were briefly rinsed with fresh medium and then cultured with the appropriately supplemented test medium. The Day 0 plate was counted at this time. Plates were counted at 24-h intervals. Attached and spread MEF's are >95% viable,^84 as confirmed by a lack of trypan blue staining or positive western blot for cleaved caspase 7 or PARP (data not shown). To count attached cells, media was aspirated from each well then rinsed, using manual agitation, twice in room temperature (RT) 1×HBSS (w/o Ca/Mg++). Attached cells were trypsinized with 1 mL TrypLE. An imaging cytometer (Thermo T10796; factory default settings) was loaded with chamber slides (ThermoFisher T10794) containing 24 μL of the trypsinized cell suspension. 18 fields were imaged; the cytometer output was given in cells/mL. […] An upper gating threshold was set at 34 μm to include size-doubling of the measured 17 μm average.
(§2) As sPLA2 enzyme isoforms have been described as both tumor suppressors and tumor promoters,^48, 49, 50, 51, 52, 53 iKRas cells were interrogated using two representative lipids—a group 7 sPLA2 substrate, and a product. First, the vector control cells were incubated with increasing concentrations of 16:0 lysoPC, a group 7 sPLA2 product, and 16:0 methylcarbamyl PAF (cPAF), a substrate. […] Therefore, in the vector control cells, intracellular accumulation of the group 7 sPLA2 product affected proliferation to a greater extent than the enzyme substrate. […] In addition, eKRas cells were much more sensitive to the substrate lipid absent significant RAS-related damage or group 7 activity.

The test system of data set [1] is iKRas cells. Kind of data set: Proliferation assay (attached cell number). It counts as cell-based, mouse. The following applies: critical micelle concentrations, 10 μM of each lipid. As for the experimental part:
as §1, §2

The next data set relates to vector control cells. Briefly: Proliferation assay (attached cell number). As to conditions: increasing lipid concentrations spiked into culture medium; lysoPC effect near its CMC, cPAF at sub-critical and critical micelle concentrations. It counts as cell-based, mouse. As for the experimental part:
as §1, §2

For data set [2], the system named is phospho-ERK and p21^waf1/cip1. Briefly: Immunoblot of vector/iKRas cell lysates. The data set is classed as cell-based, mouse. As to conditions: vector and iKRas cells, 24 h exposure to 10 μM lipid.
For another data set, the system named is PAF receptor (PAF-R). Briefly: Immunoblot for the PAF receptor. It counts as cell-based, mouse. As to conditions: vector cells, 24 h exposure to 10 μM lipid. On the technique in general: A western blot detects proteins with antibodies after separation by electrophoresis.
Data set [3] deals with iKRas cells. Kind of data set: Intracellular endomembrane lipid nanosensor (reporter) assay, near-infrared hyperspectral microscopy. As to conditions: for attenuation of lipid reporter response (lipid dysregulation) in iKRas cells: 50 nM during the 24 h induction period, order darapladib>rilapladib≈ML256>AA39-2; for lipid nanosensor response in iKRas relative to vector: pathway inhibitors, 500 nM, 24 h treated cultures. The data set is classed as cell-based, mouse. As for the experimental part:
Hyperspectral Microscopy. For lipid reporter imaging experiments, cells were plated on 35 mm glass bottom dishes (MatTek Corp. P35G-1.5-10-C) so that around 0.5-0.8E6 cells were present on assay day. 24 h prior to assay, cells were briefly rinsed with fresh media and cultured as described. On the day of the assay, test media was removed to a sterile Eppendorf, spun in a mini-fuge to pellet cellular debris, and stored at 37° C. Attached cells were briefly rinsed with Pulse media (serum-free complete medium), then exposed to nano-reporter (0.2 μg/mL in Pulse media) for 30 minutes. After exposure, excess nano-reporter was removed by rinsing in complete medium and the stored test media was re-added to the dish for the 5-h incubation period. Near-infrared hyperspectral microscopy^87 was performed on live attached cells to obtain fluorescence emission maps from endomembrane vesicles.^88 Briefly, a 730 nm continuous wave diode laser was pumped through fibers to a 100× oil objective to excite the fluorescent reporters inside attached cells. Collected emission was stored as a hyperspectral imaging cube of encoded wavelengths rectified between 1100 and 1200 nm. The center wavelength for each pixel in the cube was obtained by fitting a Lorentzian function in MATLAB. The center wavelength of the entire population of pixels in each cube, representing a 100× magnified imaging field, was fit with a Gaussian function in OriginPro 9.0. The resulting fit center wavelength values are reported.
To assess lipid dysregulation in live cells, the lipid nanosensor was introduced into the culture medium of RAS- or vector-transformed cell lines. Near-infrared hyperspectral microscopy was utilized to acquire the fluorescence spectra of the nanosensor spatially within iKRas, iHRas, eKRas, vector control cells, and MEFs harboring mutations in the parallel PI3K pathway. The data were fitted to determine the center wavelength of the nanosensor emission band, which was then mapped back over the brightfield images of the cells and plotted in a histogram. Using this method, the average sensor emission wavelength 24 h and 72 h after oncogenic RAS induction was measured.
Next measured was whether this intracellular reporter response was sensitive to sPLA2-mediated generation of lysophospholipids and related lipid species. Lipid accumulation was measured using the nanosensor 24 h after treating the cells with an array of PLA2 inhibitors.

Another data set concerns vector line. Described as above. The following applies: 24 h with 100 nM dexamethasone salt.
In data set [4] the test system is syngeneic KrasG12D/+; Trp53−/− (KP) transplant model of non-small cell lung cancer. Briefly: In vivo survival study. The arrangement: species or system mouse. As for the experimental part: In vivo survival study. To generate the syngeneic KP transplant lung cancer model, a cell line derived from a KrasG12D/+; Trp53−/−(KP) GEMM lung tumor was infected with a retroviral luciferase (Luc)-GFP construct, and 5000 KP tumor cells resuspended in 400 μL of PBS were tail vein injected into 7 week old Female C57BL/6 mice.^90 Mice were randomized into various study cohorts before treatment with vehicle or darapladib. Treatments were administered by oral gavage once per day, Monday through Friday. […] Bioluminescence positive mice remained in the study while bioluminescence negative mice were euthanized, and their lungs were harvested for histology. Tissues were rinsed and fixed in 4° C. buffered 4% paraformaldehyde for 24-48 hours and moved to 4° C. 70% ethanol for long term storage, embedding, sectioning, and staining (H&E, anti-GFP primary antibody, anti-Ki-67 primary antibody). […] Tissues negative for histological dysplasia were excluded from final study analysis; tissues positive for histological dysplasia were kept in the final study analysis. Each cohort's N value was adjusted to reflect histology results before final analysis. […]
The inventors next assessed whether group 7 inhibition would impact the development of a RAS-harboring murine cancer model. […]

The conditions of data set [5]: depending on the cell type and downstream marker used; read-out: reported EC50; cited from earlier work.
For data set [6] the following is noted: cited from earlier work.
Data set [7] deals with iKRas cells. Kind of data set: Lipidomics (LC-MS) after inhibitor treatment. The following applies: iKRas cells treated with darapladib; especially lysoPC, also lysoPE, lysoPI, lysoPS.
Method: Lipidomics and Analysis. 100 mm plates were seeded, grown, and induced so that on the day of harvest dishes were 90-100% confluent. Culture medium was Phenol red-free. To harvest conditioned media, the full volume was moved to a glass vial on dry ice/alcohol slurry and a fresh cold PBS volume equal to ¼ of the collected volume was used to rinse the cells; this volume was collected and pooled. To harvest lysate, a separate dish of cells was washed three times with cold HBSS; on the last wash, liquid was aspirated, and the dish was placed onto the dry ice/alcohol slurry to freeze for 30 seconds. 1 mL of a 2:0.8 parts methanol:water mix (chilled to −80° C. and stored on dry ice) was added to the plate. The dish was immediately moved to wet ice and scrapped with a rubber policeman. Lysate was pooled in the bottom of the dish, and then transferred to a glass vial on dry ice until −80° C. storage. The lysate extract vials were briefly flushed with nitrogen gas. […] Quantitation used an MRM method under positive and negative electrospray modes. Raw data was reported as Mol %, or ng/mL of the lipid species normalized to the absolute total lipid abundance (ng/mL) detected by the mass spectrometer. Reported data is Mol % divided by the total adherent cell count from a parallel-treated plate, calculated as a Fold change versus control: (iKRas/Vector)-1.
For data set [8], the system named is RAS harboring lines (iKRas cells and cell lines derived from lung, pancreas, and colorectal tumors). Briefly: Cell viability after darapladib treatment (CellTiter-Glo). As to conditions: 48 h incubation.
Method: (§3) 5,000 cells/well of doxycycline induced iKRas or target mouse/human cells were seeded in 96-well plates 1 day prior to the start of treatment. On the day of the experiment, increasing concentrations of darapladib were added in triplicate to the conditioned media. After incubation for 48 h, the cell viability was assessed using the CellTiter-Glo® luminescent assay (Promega G9681). Prior to use, reconstituted kit reagent was equilibrated to room temperature. To initiate cell lysis, 50 μL of reagent was added to each well. Plates were incubated for 10 minutes at room temperature with gentle mixing on an orbital shaker. Luminescence was measured using a Tecan Infinite M1000 Pro plate reader (Tecan Group Ltd.).
In data set [9] the test system is RAW 264.7 murine macrophages. The description is as above. The following applies: 48 h incubation.
Method: as §3
Data set [10] deals with eKRas versus wildtype SV40 MEFs. Described as above. The following applies: sigmoidal dose-response.
Method: as §3
The mark [11] stands for this setting: 20 nM during the 24 h induction period.

Molecules are shown by their SMILES.

Method for vector line: For lipid reporter imaging experiments, cells were plated on 35 mm glass bottom dishes (MatTek Corp. P35G-1.5-10-C) so that around 0.5-0.8E6 cells were present on assay day. 24 h prior to assay, cells were briefly rinsed with fresh media and cultured as described. On the day of the assay, test media was removed to a sterile Eppendorf, spun in a mini-fuge to pellet cellular debris, and stored at 37° C. Attached cells were briefly rinsed with Pulse media (serum-free complete medium), then exposed to nano-reporter (0.2 μg/mL in Pulse media) for 30 minutes. After exposure, excess nano-reporter was removed by rinsing in complete medium and the stored test media was re-added to the dish for the 5-h incubation period. Near-infrared hyperspectral microscopy^87 was performed on live attached cells to obtain fluorescence emission maps from endomembrane vesicles.^88 Briefly, a 730 nm continuous wave diode laser was pumped through fibers to a 100× oil objective to excite the fluorescent reporters inside attached cells. Collected emission was stored as a hyperspectral imaging cube of encoded wavelengths rectified between 1100 and 1200 nm. The center wavelength for each pixel in the cube was obtained by fitting a Lorentzian function in MATLAB. […]

As for `CCCCCCCCCCCCCCCCOC[C@H](COP(=O)([O-])OCC[N+](C)(C)C)OC(=O)NC` [cPAF, 16:0 methylcarbamyl PAF], the “effect on eKRas cell proliferation” value in the data set with eKRas cells was “potent arresting effect”. Further, in the data set on iKRas cells [1], the “effect on iKRas cell proliferation” value was “potent arresting effect”. In the data set on vector control cells, the “vector control cell proliferation” value was “mild stimulatory effect”. The “phospho-ERK and p21^waf1/cip1 expression” value in [2] is given as “increased”. Further, the PAF-R expression entry with PAF receptor (PAF-R) was “downregulated”.
As to `CCCCCCCCCCCCCCCCOCC(COCC(F)(F)F)OP(=O)(O)OC` (stereo not drawn) [MJ-33], the “attenuation of lipid reporter response in iKRas cells” value in the data set with iKRas cells [3] (setting [11]) is given as “unable to attenuate the lipid reporter response”.
Turning to `CC(C)OC(=O)c1ccc(N2C(=O)C(Cl)=C(Cl)C2=O)cc1` [TSI-01], the “attenuation of lipid reporter response in iKRas cells” value in the data set on iKRas cells [3] (1 μM during the 24 h induction period) is “unable to attenuate the lipid reporter response”.
For `O=C(N1CCCC1)n1ncc(-c2ccc(-c3ccccc3)cc2)n1` [AA39-2], in the data set with iKRas cells [3], the “attenuation of lipid reporter response (lipid dysregulation) in iKRas cells” value was “attenuated the reporter response”.
In the case of `N#Cc1c(Oc2ccc(F)c(NC(=O)Cc3cccc(C(F)(F)F)c3)c2)ccc2nc(NC(=O)C3CC3)sc12` [TAK-632], the “lipid nanosensor response in iKRas relative to vector” value in the data set on iKRas cells [3] is reported as “significantly diminished”.
As to `CCCCCCCCCCCCCCCC(=O)OC[C@@H](O)COP(=O)([O-])OCC[N+](C)(C)C` [lysoPC, 16:0 lysoPC], the “effect on eKRas cell proliferation” value with eKRas cells is recorded as “negligible arresting effect or a reduced arresting effect”. Besides, in the data set on iKRas cells [1], the “effect on iKRas cell proliferation” value is recorded as “negligible arresting effect or a reduced arresting effect”. Further, in the data set on vector control cells, the “vector control cell proliferation” value is on record as “arrested”. In addition, the “phospho-ERK and p21^waf1/cip1 expression” value in [2] is listed as “not”.
Regarding `O=C1O/C(=C/Br)CCC1c1cccc2ccccc12` (stereo not drawn) [BEL], the “attenuation of lipid reporter response in iKRas cells” value in the data set on iKRas cells [3] (75 nM during the 24 h induction period) is “unable to attenuate the lipid reporter response”.
In the case of `C[C@@H]1C[C@H]2[C@@H]3CCC4=CC(=O)C=C[C@]4(C)[C@@]3(F)[C@@H](O)C[C@]2(C)[C@@]1(O)C(=O)CO` [dexamethasone], the “reporter response in the vector line” value in the data set on vector line is given as “increased the reporter response”.
For orientation: EC50 means the concentration giving half of the maximal effect. For the molecule `CCN(CC)CCN(Cc1ccc(-c2ccc(C(F)(F)F)cc2)cc1)C(=O)Cn1c(SCc2ccc(F)cc2)nc(=O)c2c1CCC2` [darapladib], the “attenuation of lipid reporter response (lipid dysregulation) in iKRas cells” value in the data set with iKRas cells [3] is reported as “attenuated the reporter response”. For the same molecule, the “lung cancer-associated death and morbidity” value in [4] (10 mg/kg daily oral gavage starting on Day 1 or Day 6, C57BL/6 mice) is “significant delay”. For the same molecule, the “survival in Kras^G12D/+/p53^−/− lung cancer model in mice” value in [4] (mouse, in vivo) is “prolonged survival”. The EC50 in data set [5] was 0.01 to 1 µM. Besides, the safety in vivo entry in [6] was “safe and apparently side-effect-free”. Besides, the “cardiovascular clinical endpoint, Phase 3 trials” value in data set [6] (in vivo) was “failing to meet its intended cardiovascular clinical endpoint”. Moreover, the “lysophospholipid levels (lipidomics)” value with iKRas cells [7] is listed as “significant attenuation”. Moreover, the “viability of RAS harboring lines” value in data set [8] was “died at low micromolar concentrations”. In addition, the “viability of RAW 264.7 control cell line” value in [9] is reported as “largely unaffected”. The “potency at killing eKRas versus wildtype cells” value in data set [10] is recorded as “twice as potent”.
On to `COCCN1CCC(N(Cc2ccc(-c3ccc(C(F)(F)F)cc3)cc2)C(=O)Cn2c(SCc3cccc(F)c3F)cc(=O)c3ccccc32)CC1` [rilapladib], for which the “attenuation of lipid reporter response (lipid dysregulation) in iKRas cells” value in the data set with iKRas cells [3] is reported as “attenuated the reporter response”.
Regarding `Cc1c(C)c2c(c(C)c1O)CC[C@@](C)(CCC[C@H](C)CCC[C@H](C)CCCC(C)C)O2` [Vitamin E, α-tocopherol], the “reporter response in iKRas cells” value in the data set on iKRas cells [3] (20 μM ±-α-tocopherol during the 24 h induction period) is “abrogated”.
For `Cc1cc(N2CCN(C(=O)Oc3ccc(-c4ccccc4)cn3)CC2)c2ccccc2n1` [ML256], in the data set with iKRas cells [3], the “attenuation of lipid reporter response (lipid dysregulation) in iKRas cells” value is given as “attenuated the reporter response”.
In the case of `CCc1c(C(=O)C(N)=O)c2c(OCC(=O)O)cccc2n1Cc1ccccc1` [varespladib], the “attenuation of lipid reporter response in iKRas cells” value with iKRas cells [3] (setting [11]) is recorded as “unable to attenuate the lipid reporter response”.
Turning to `Cn1nccc1Nc1nccc(-c2ccn([C@H](CO)c3ccc(Cl)c(F)c3)c(=O)c2)n1` [GDC-0994], in the data set with iKRas cells [3], the “lipid nanosensor response in iKRas relative to vector” value is on record as “significantly diminished”.

(Values after patent US20220257599A1, “METHODS USEFUL IN TREATING CANCERS HARBORING A KRAS OR HRAS MUTATION OR AMPLIFICATION” (Memorial Sloan Kettering Cancer Center, priority 2019, published 2022).)
